Measurements from patent US9198923B2, “Phosphate management with small molecules” (OPKO IRELAND GLOBAL HOLDINGS, LTD., priority 2009, dated 2015).

Legend:
[1] = tested on: phosphate uptake in Caco-2 human intestinal epithelial cells; experiment: Dosage effect on phosphate uptake inhibition in Caco-2 cells; format: cell-based; conditions: concentrations from 1 to 100 μM, FIG. 2
Procedure: Caco-2 cells were cultured in DMEM medium containing 20% Fetal Bovine Serum. Medium from the sub-confluent monolayer of Caco-2 cells was removed. The resulting cells were washed with either a sodium free buffer (137 mM choline chloride, 5.4 mM KCl, 2.8 mM CaCl2, 1.2 mM MgSO4, and 14 mM Tris-HCl at pH 7.4), or with a buffer that contained sodium (137 mM sodium chloride, 5.4 mM KCl, 2.8 mM CaCl2, 1.2 mM MgSO4, and 14 mM Tris-HCl at pH 7.4). After the wash, sodium or sodium free buffer comprising 1 μM of radiolabeled phosphate (K2H^32PO4,1 μCi/mL) and 100 μM of a small molecule having a phosphate group that was selected from the group containing Compounds 001-029 was added to the cells and they were incubated for 20 min at 37° C. Phosphate uptake was terminated by removing the uptake media and washing the cells with an ice-cold solution of 14 mM Tris-HCl, pH 7.4 that contained 137 mM of either choline chloride or sodium chloride. The monolayers of the cells were solubilized by the addition of a 1% solution of Triton X-100 to extract the radiolabeled phosphate. Aliquots of the radiolabeled phosphate were added to scintillation fluid and the radioactivity was determined by liquid scintillation counting. The difference between the assays using the two solutions with or without sodium represents the sodium dependent transport of phosphate.
The procedure of example 1 was repeated using C-002, C-004, C-012, and C-028 at concentrations from 1 to 100 μM. The results were recorded as the percent of phosphate uptake inhibition versus concentration of the small molecule having a phosphate group.

[2] = tested on: Caco-2 human epithelial cells; experiment: Caco-2 cell viability by ALAMAR BLUE stain reduction; format: cell-based; conditions: 100 μM compound, Caco-2 cells; FIG. 3; taken as nontoxic
Procedure: Staining was performed with ALAMAR BLUE stain in the presence of 100 μM C-002, C-004, C-012, and C-028 cells to exclude compound toxicity in the phosphorus transport assay. Caco-2 cells were plated into a 96-well plate in concentrations which gave about 16,000 cells/well on the day of the test (e.g., 8000 cells/well for a 1 day growth, 4000 cells/well for a 2 day growth, 2000 cell/well for a 3 day growth). On the day of the test, old media was replaced by 80 μL of fresh media per well with either a 100 μM final concentration of the small molecule having a phosphate group in DMSO, or with 1% of DMSO in the control wells. Testing was performed in duplicate. ALAMAR BLUE stain (BioSource International, Inc., Cat#DAL1100) was added at a final concentration of 10% into each well according to manufacturer instructions. The cells were then incubated at 37° C. for another 18 or 24 hours, and the reduction of ALAMAR BLUE stain by vital cells was measured spectrophotometrically at 570 nm and 600 nm. The results were calculated as the percent of reduction using the formula in the manufacturer's manual (TREK Diagnostic Systems, PI-DIAL 1025/1100 Rev 1.0).

[3] = tested on: Caco-2 human epithelial cells; experiment: Caco-2 cell viability by trypan blue exclusion; format: cell-based; conditions: 100 μM compound, one hour of incubation, sodium or sodium free buffer; FIG. 4
Procedure: Trypan blue exclusion was used to determine the effect of C-002, 004, 012, and 028 on cell viability. The cells were plated in the same way as the ALAMAR BLUE stain test (see above). On the day of the test, media was removed, cells were washed with PBS and incubated with 100 μM (final concentration) of C-002, C-004, C-012 and C-028 in either a sodium free buffer (137 mM choline chloride, 5.4 mM KCl, 2.8 mM CaCl2, 1.2 mM MgSO4, and 14 mM Tris-HCl at pH 7.4), or with a buffer that contained sodium (137 mM sodium chloride, 5.4 mM KCl, 2.8 mM CaCl2, 1.2 mM MgSO4, and 14 mM Tris-HCl at pH 7.4). Testing was performed in duplicate. After 1 hour of incubation the cells were detached with trypsin/EDTA, transferred to an Eppendorf tube, and their viability was counted using 0.4% trypan blue stain (Invitrogen, Cat.#15250-061) in a 1:4 dilution with confocal microscopy.

Male Sprague Dawley rats = experiment: Maximum tolerated dose (MTD) in male Sprague Dawley rats; format: in vivo, rat; conditions: oral, daily, 0.5, 5 and 10 mg per kg for twelve days; for effect on weight gain: FIG. 5
Procedure: Male Sprague Dawley rats were given C-002, C-004, C-012, C-021, C-022, C-023, and C-028 orally and daily at doses of 0.5, 5 and 10 mg per kg for twelve days. The mortality and animal weight data were recorded.

SMILES: C=C(c1ccccc1)P(=O)(O)O [C-004]
- percent inhibition of phosphate uptake versus concentration [1]: increased with the concentration
- percent difference in ALAMAR BLUE stain reduction after 18 and 24 hours [2]: virtually unchanged
- viability of Caco-2 cells by trypan blue exclusion [3]: no significant effect
- mortality (Male Sprague Dawley rats): No death
- effect on weight gain (Male Sprague Dawley rats): no significant effect

SMILES: O=P(O)(OC(c1ccccc1)C(F)(F)C(F)(F)C(F)(F)F)c1ccccc1 (centres unmarked) [C-028]
- percent inhibition of phosphate uptake versus concentration [1]: increased with the concentration
- percent difference in ALAMAR BLUE stain reduction after 18 and 24 hours [2]: virtually unchanged
- viability of Caco-2 cells by trypan blue exclusion [3]: no significant effect
- mortality (Male Sprague Dawley rats): No death
- effect on weight gain (Male Sprague Dawley rats): no significant effect

SMILES: O=P(O)(O)c1c(Cl)c(Cl)nc(Cl)c1Cl [C-002]
- percent inhibition of phosphate uptake versus concentration [1]: increased with the concentration
- percent difference in ALAMAR BLUE stain reduction after 18 and 24 hours [2]: virtually unchanged
- viability of Caco-2 cells by trypan blue exclusion [3]: no significant effect
- mortality (Male Sprague Dawley rats): No death
- effect on weight gain (Male Sprague Dawley rats): no significant effect

SMILES: O=P(O)(O)c1ccccc1OCCCOc1ccccc1P(=O)(O)O [C-022]
- mortality (Male Sprague Dawley rats): No death
- effect on weight gain (Male Sprague Dawley rats): no significant effect

SMILES: Cc1csc(Nc2ccc([N+](=O)[O-])cc2)[n+]1CCC(O)(P(=O)(O)O)P(=O)(O)O [C-012]
- percent inhibition of phosphate uptake versus concentration [1]: increased with the concentration
- percent difference in ALAMAR BLUE stain reduction after 18 and 24 hours [2]: virtually unchanged
- viability of Caco-2 cells by trypan blue exclusion [3]: no significant effect
- mortality (Male Sprague Dawley rats): No death
- effect on weight gain (Male Sprague Dawley rats): no significant effect

SMILES: O=P(O)(O)/C=C/c1ccccc1 [C-023]
- mortality (Male Sprague Dawley rats): No death
- effect on weight gain (Male Sprague Dawley rats): no significant effect

SMILES: O=P(O)(O)c1ccccc1OCCCl [C-021]
- mortality (Male Sprague Dawley rats): No death
- effect on weight gain (Male Sprague Dawley rats): no significant effect
